Reference: US20060052457A1, “Use of ppar alpha agonists for the treatment of vascular and renal diseases” (priority 2002, published 2006)
Entries after “also recorded” stand apart in the source; their conditions may differ.

Key:
[1] = system: porcine coronary artery smooth muscle cells; assay: Basal DNA synthesis without mitogenic stimulation, quiescent porcine coronary artery SMCs; assay type: cell-based; conditions: for basal DNA synthesis in the absence of mitogenic stimulation: quiescent porcine coronary artery SMCs
Experimental: (§1) Quiescent SMCs (panel A) and H4IIE cells (panel B) were treated with PGJ2 and incorporation of thymidine was measured as previously described. Quiescent SMCs were also treated with WY-14643 (panel C) and incorporation of thymidine was measured. The data are presented as means±s.e. (n=3).

[2] = system: porcine coronary artery smooth muscle cells; assay: [3H]thymidine incorporation (DNA synthesis) after PDGF stimulation, porcine coronary artery SMCs; assay type: cell-based; conditions: PDGF 0.1 μg, 72 h
Experimental: (§2) SMCs were prepared by explant culture as previously described, grown in 24-well culture dishes to 70% confluence and then placed into serum-free DMEM supplemented with insulin, ascorbate, pyruvate and selenium for 5 days. These conditions result in the cessation of cell growth, and markers of the contractile state are expressed. The cells were subsequently treated with PDGF (0.1 μg) in the presence or absence of WY-14643, and 2 μCi/mL [^3H]thymidine were added to the culture medium 24 hours later. Seventy-two hours following PDGF treatment, incorporation of thymidine into trichloroacetate-precipitable material was measured. The data, which is presented as means±s.e. (n=3), are shown for porcine SMCs (panel A), human saphenous vein SMCs (panel B) and human internal mammary artery SMCs (panel C). All values have been normalized relative to the incorporation in unstimulated quiescent cells (control=100).
Quiescent SMCs were treated with PDGF (01. μg/ml) in the presence and absence of PGJ2, and incorporation of thymidine was measured as previously described. The data are presented as means±s.e. (n=3).
Quiescent SMCs were treated with PDGF (0.1 μg) in the presence or absence of clofibrate, and incorporation of thymidine was measured as previously described. The data are presented as means±s.e. (n=3).

H4IIE hepatoma cells [3] = assay: Basal DNA synthesis without mitogenic stimulation, quiescent H4IIE hepatoma cells; assay type: cell-based
Experimental: as §1

smooth muscle cells = assay: DNA synthesis by smooth muscle cells with PPAR-gamma agonists (FIG. 13); assay type: cell-based
[4] = system: human proximal tubule cells; assay: Growth (cell number, Coulter counter) of human proximal tubule cells; assay type: cell-based
Experimental: Human proximal tubule cells were purchased from Clonetics and propagated in 24-well culture dishes with Renal Epithelial Cell Basal medium (REBM) containing 0.5% fetal bovine serum (FBS). Treatments were added once the cells reached 40% confluence. Incubation was continued for 4 days, at which time the cells were detached by trypsinization and cell number measured with a Coulter counter. All comparisons are relative to a cell population treated with 5 μg/ml aphidicolin, a non-toxic inhibitor of cell proliferation. The data are presented as means+/−s.e. (n=6).

H4IIE hepatoma cells [5] = assay: [3H]thymidine incorporation (DNA synthesis) by H4IIE hepatoma cells after IGF-1; assay type: cell-based; conditions: IGF-1 0.1 μM, 72 h
Experimental: H4IIE hepatoma cells were cultured and quiescent cells were prepared in 24-well culture dishes by placing the cells into serum-free α-MEM for 3 days. The cells were treated with IGF-1 (0.1 μM) in the presence or absence of WY-14643, and 2 μCi/mL [^3H]thymidine were added concurrent with the treatment. Seventy-two hours following treatment, the cells were lysed and thymidine incorporation was measured as described above. The data are presented as means+/−s.e. (n=3).

[6] = system: Porcine coronary arteries; assay: Organ culture model of restenosis (balloon angioplasty ex vivo, neointimal index); assay type: cell-based; conditions: 250 μM continuous, 14 days in culture after balloon angioplasty ex vivo
Experimental: Porcine coronary arteries were subjected to balloon angioplasty ex vivo and placed into culture for 14 days. Treatment with WY-14643 (250 μM) was continuous over the entire time period. Subsequently, the vessel segments were sectioned and morphometry was employed to quantify the extent of restenosis. The neointimal index is defined as: neointimal area/medial area. The data are presented as means±s.e. (n=8). Control=no balloon angioplasty.

A10 smooth muscle cells = assay: [3H]thymidine incorporation (DNA synthesis) by A10 smooth muscle cells after PDGF or IGF-1; assay type: cell-based, rat; conditions: A10 SMCs, 72 h
Experimental: […] were cultured and quiescent cells were prepared in 24-well culture dishes as described in the legend for FIG. 2. The cells were treated with PDGF (0.1 μg) or IGF-1 (0.1 μM) in the presence or absence of WY-14643, and 2 μCi/mL [^3H]thymidine were added to the medium concurrent with the mitogens. Seventy-two hours following treatment, the cells were lysed and thymidine incorporation was measured as described above. […] (n=3), for A10 cells treated with PDGF (panel A) and IGF-1 (panel B).

[7] = system: human saphenous vein SMCs; assay: [3H]thymidine incorporation (DNA synthesis) after PDGF stimulation, human saphenous vein SMCs; assay type: cell-based; conditions: PDGF 0.1 μg, 72 h
Experimental: as §2, with “C).” for “C). All values have been normalized relative to the incorporation in unstimulated quiescent cells (control=100).”

[8] = system: human internal mammary artery SMCs; assay: [3H]thymidine incorporation (DNA synthesis) after PDGF stimulation, human internal mammary artery SMCs; assay type: cell-based; conditions: PDGF 0.1 μg, 72 h
Experimental: as §2, with “C).” for “C). All values have been normalized relative to the incorporation in unstimulated quiescent cells (control=100).”

Row | SMILES | basal DNA synthesis in the absence of mitogenic stimulation [1] | DNA synthesis (thymidine incorporation) in response to PDGF stimulation [2] | basal DNA synthesis in the absence of mitogenic stimulation (H4IIE hepatoma cells [3]) | inhibition of DNA synthesis by smooth muscle cells (smooth muscle cells) | growth of human proximal tubule cells (cell number) ([4]; 4 days incubation, relative to aphidicolin 5 μg/ml) | apparent toxicity in primary human renal proximal tubule cells ([4]; primary cultures) | DNA synthesis in response to stimulation by IGF-1 (H4IIE hepatoma cells [5]) | neointimal proliferation / restenosis (neointimal index) [6] | apparent toxicity / cytotoxicity (FIG. 9) ([1]; stated with reference to FIG. 9) | DNA synthesis in response to IGF-1 stimulation (A10 smooth muscle cells; IGF-1 0.1 μM) | DNA synthesis in response to PDGF stimulation (A10 smooth muscle cells; PDGF 0.1 μg) | DNA synthesis (thymidine incorporation) in response to PDGF stimulation [7] | DNA synthesis (thymidine incorporation) in response to PDGF stimulation [8]
1 | CCCCC[C@H](O)/C=C/[C@H]1C(=O)C=C[C@@H]1C/C=C\CCCC(=O)O [PGJ2] | inhibits basal DNA synthesis | inhibits DNA synthesis; also recorded: is inhibitory | inhibits basal DNA synthesis |  |  |  |  |  |  |  |  |  | 
2 | CCc1ccc(CCOc2ccc(CC3SC(=O)NC3=O)cc2)nc1 (stereo not drawn) [piaglitazone] |  |  |  | are not |  |  |  |  |  |  |  |  | 
3 | Cc1cccc(Nc2cc(Cl)nc(SCC(=O)O)n2)c1C [WY-14643] | has no effect | inhibited DNA synthesis; also recorded: can inhibit smooth muscle cell proliferation |  |  | prevented cell growth; also recorded: effectively inhibits the growth | without apparent toxicity | inhibits DNA synthesis; also recorded: prevented cell growth | inhibits neointimal proliferation; also recorded: prevent restenosis | without apparent toxicity | does not inhibit DNA synthesis; also recorded: could not inhibit the growth | does not inhibit DNA synthesis; also recorded: could not inhibit the growth | inhibited DNA synthesis | inhibited DNA synthesis
